Measured values published in patent publication US6896895B2, “Carotenoid esters, carotenoid-enriched feeds, and methods of pigmenting foods and foodstuffs” (DSM IP Assets B.V., priority 2000, dated 2005).

Columns and labels:
[1] = system: skin and shanks of broilers; experiment: Reflectance colorimetry and visual classification of skin and shanks of broilers; type: in vivo, broiler chickens (Ross 308, Ross 508); parameters: key to Shanks Visual Classification / Skin Visual Classification: −; (+); +; ++ = good color; o = orange; conditions: for Shanks Chroma C*ab % of Controls / Shanks Color Hue h*ab % of Controls / Skin Chroma C*ab % of Controls / Skin Color Hue h*ab % of Controls / Shanks Chroma C*ab Value / Shanks Color Hue h*ab Value / Shanks Visual Classification / Skin Chroma C*ab Value / Skin Color Hue h*ab Value / Skin Visual Classification: dry carcasses; for chroma C*a*b* values in the skin and in the shanks / color hue h*a*b* in the skin and in the shanks / effectiveness in terms of concentration in the skin, and color intensity (chroma C*a*b*) in the skin and shanks: versus the control
Summary of the method: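 Ross broilers were fed a low-carotenoid basal diet (<2 mg xanthophylls/kg), then received pigment-supplemented diet for three weeks and were slaughtered on day 44. Back-skin colour (mean of three points) and shank colour (single reading) were measured by Minolta chromameter (D65, 0°) and reported as CIE L*a*b*, h* and C*, averaged over ten birds (5 male, 5 female).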

[2] = Carotenoid ester content in plasma, back skin and abdominal fat of broilers (HPLC); type: in vivo, broiler chickens (Ross 308, Ross 508); conditions: for concentrations determined as equivalents of the ethyl β-apo-8′-carotenoate, in the skin: in comparison to the other 12 tested carotenoid esters
Summary of the method: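 Ross 308/508 broilers, raised on low-carotenoid basal diet (<2 mg xanthophylls/kg) to day 15 or 22, then fed pigment-supplemented diet for three weeks; plasma sampled day 42, back skin and abdominal fat pooled per group at slaughter on day 44. Carotenoid esters quantified by normal-phase HPLC (0.5% acetone in n-hexane) calibrated with all-E ethyl β-apo-8′-carotenoate; Z-isomers corrected by factor 1.4.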

[3] = average over doses, in relation to the controls (CAROPHYLL Yellow) of the same trial, Table 3
[4] = trial MC-24/99, 20 mg/kg feed, in relation to the controls of the same trial
[5] = trial MC-24/99, 30 mg/kg feed, in relation to the controls of the same trial

SMILES: CC(C=CC=C(C)C=CC1=C(C)CCCC1(C)C)=CC=CC=C(C)C=CC=C(C)C(=O)OC(C)(C)C [compound (18), tert. butyl beta-apo-8′-carotenoate]
- Shanks Chroma C*ab % of Controls ([1]; average over doses, Table 5): 113%
- Shanks Color Hue h*ab % of Controls ([1]; average over doses, Table 5): 100%
- Skin Chroma C*ab % of Controls ([1]; average over doses, Table 5): 115%
- Skin Color Hue h*ab % of Controls ([1]; average over doses, Table 5): 105%
- Shanks Chroma C*ab % of Controls ([1]; trial MC-24/99, 20 mg/kg feed): 114%
- Shanks Chroma C*ab Value ([1]; trial MC-24/99, 20 mg/kg feed): 63
- Shanks Color Hue h*ab % of Controls ([1]; trial MC-24/99, 20 mg/kg feed): 100%
- Shanks Color Hue h*ab Value ([1]; trial MC-24/99, 20 mg/kg feed): 84
- Shanks Visual Classification ([1]; trial MC-24/99, 20 mg/kg feed): +
- Skin Chroma C*ab % of Controls ([1]; trial MC-24/99, 20 mg/kg feed): 116%
- Skin Chroma C*ab Value ([1]; trial MC-24/99, 20 mg/kg feed): 38
- Skin Color Hue h*ab % of Controls ([1]; trial MC-24/99, 20 mg/kg feed): 107%
- Skin Color Hue h*ab Value ([1]; trial MC-24/99, 20 mg/kg feed): 81
- Skin Visual Classification ([1]; trial MC-24/99, 20 mg/kg feed): +
- Shanks Chroma C*ab % of Controls ([1]; trial MC-24/99, 30 mg/kg feed): 111%
- Shanks Chroma C*ab Value ([1]; trial MC-24/99, 30 mg/kg feed): 70
- Shanks Color Hue h*ab % of Controls ([1]; trial MC-24/99, 30 mg/kg feed): 99%
- Shanks Color Hue h*ab Value ([1]; trial MC-24/99, 30 mg/kg feed): 82
- Shanks Visual Classification ([1]; trial MC-24/99, 30 mg/kg feed): ++
- Skin Chroma C*ab % of Controls ([1]; trial MC-24/99, 30 mg/kg feed): 113%
- Skin Chroma C*ab Value ([1]; trial MC-24/99, 30 mg/kg feed): 41
- Skin Color Hue h*ab % of Controls ([1]; trial MC-24/99, 30 mg/kg feed): 102%
- Skin Color Hue h*ab Value ([1]; trial MC-24/99, 30 mg/kg feed): 80
- Skin Visual Classification ([1]; trial MC-24/99, 30 mg/kg feed): ++
- chroma C*a*b* values in the skin and in the shanks [1]: substantially enhanced
- color hue h*a*b* in the skin and in the shanks [1]: not significantly changed
- effectiveness in terms of concentration in the skin, and color intensity (chroma C*a*b*) in the skin and shanks [1]: significantly more effective
- Analytical Content as Equivalent of Ethyl β-apo-8′-carotenoate Fat % [2, 3]: 113%
- Analytical Content as Equivalent of Ethyl β-apo-8′-carotenoate Plasma % [2, 3]: 103%
- Analytical Content as Equivalent of Ethyl β-apo-8′-carotenoate Skin % [2, 3]: 198%
- Analytical Content as Equivalent of Ethyl β-apo-8′-carotenoate Skin % ([2]; average over doses, in relation to the controls (CAROPHYLL Yellow) of the same trial, Table 3, listed as tert. Butyl β-apo-8′-carotenoate): 189%
- concentrations determined as equivalents of the ethyl β-apo-8′-carotenoate, in the skin [2]: substantially higher
- Analytical Content as Equivalent of Ethyl β-apo-8′-carotenoate Fat ([2]; trial MC-24/99, 20 mg/kg feed): 3.7 mg/kg
- Analytical Content as Equivalent of Ethyl β-apo-8′-carotenoate Plasma ([2]; trial MC-24/99, 20 mg/kg feed): 12.2 mg/kg
- Analytical Content as Equivalent of Ethyl β-apo-8′-carotenoate Skin ([2]; trial MC-24/99, 20 mg/kg feed): 5.4 mg/kg
- Analytical Content as Equivalent of Ethyl β-apo-8′-carotenoate Fat % [2, 4]: 119%
- Analytical Content as Equivalent of Ethyl β-apo-8′-carotenoate Plasma % [2, 4]: 117%
- Analytical Content as Equivalent of Ethyl β-apo-8′-carotenoate Skin % [2, 4]: 194%
- Analytical Content as Equivalent of Ethyl β-apo-8′-carotenoate Fat ([2]; trial MC-24/99, 30 mg/kg feed): 4.6 mg/kg
- Analytical Content as Equivalent of Ethyl β-apo-8′-carotenoate Plasma ([2]; trial MC-24/99, 30 mg/kg feed): 14.1 mg/kg
- Analytical Content as Equivalent of Ethyl β-apo-8′-carotenoate Skin ([2]; trial MC-24/99, 30 mg/kg feed): 6.4 mg/kg
- Analytical Content as Equivalent of Ethyl β-apo-8′-carotenoate Fat % [2, 5]: 107%
- Analytical Content as Equivalent of Ethyl β-apo-8′-carotenoate Plasma % [2, 5]: 88%
- Analytical Content as Equivalent of Ethyl β-apo-8′-carotenoate Skin % [2, 5]: 184%

SMILES: CCCC(C)OC(=O)C(C)=CC=CC(C)=CC=CC=C(C)C=CC=C(C)C=CC1=C(C)CCCC1(C)C (stereo not drawn) [compound (19), 2-pentyl beta-apo-8′-carotenoate]
- Shanks Chroma C*ab % of Controls ([1]; average over doses, Table 5): 105%
- Shanks Color Hue h*ab % of Controls ([1]; average over doses, Table 5): 98%
- Skin Chroma C*ab % of Controls ([1]; average over doses, Table 5): 106%
- Skin Color Hue h*ab % of Controls ([1]; average over doses, Table 5): 97%
- Shanks Chroma C*ab % of Controls ([1]; trial MC-24/99, 20 mg/kg feed): 108%
- Shanks Chroma C*ab Value ([1]; trial MC-24/99, 20 mg/kg feed): 60
- Shanks Color Hue h*ab % of Controls ([1]; trial MC-24/99, 20 mg/kg feed): 98%
- Shanks Color Hue h*ab Value ([1]; trial MC-24/99, 20 mg/kg feed): 82
- Shanks Visual Classification ([1]; trial MC-24/99, 20 mg/kg feed): +
- Skin Chroma C*ab % of Controls ([1]; trial MC-24/99, 20 mg/kg feed): 106%
- Skin Chroma C*ab Value ([1]; trial MC-24/99, 20 mg/kg feed): 34
- Skin Color Hue h*ab % of Controls ([1]; trial MC-24/99, 20 mg/kg feed): 96%
- Skin Color Hue h*ab Value ([1]; trial MC-24/99, 20 mg/kg feed): 73
- Skin Visual Classification ([1]; trial MC-24/99, 20 mg/kg feed): +
- Shanks Chroma C*ab % of Controls ([1]; trial MC-24/99, 30 mg/kg feed): 102%
- Shanks Chroma C*ab Value ([1]; trial MC-24/99, 30 mg/kg feed): 65
- Shanks Color Hue h*ab % of Controls ([1]; trial MC-24/99, 30 mg/kg feed): 98%
- Shanks Color Hue h*ab Value ([1]; trial MC-24/99, 30 mg/kg feed): 82
- Shanks Visual Classification ([1]; trial MC-24/99, 30 mg/kg feed): ++
- Skin Chroma C*ab % of Controls ([1]; trial MC-24/99, 30 mg/kg feed): 105%
- Skin Chroma C*ab Value ([1]; trial MC-24/99, 30 mg/kg feed): 38
- Skin Color Hue h*ab % of Controls ([1]; trial MC-24/99, 30 mg/kg feed): 97%
- Skin Color Hue h*ab Value ([1]; trial MC-24/99, 30 mg/kg feed): 76
- chroma C*a*b* values in the skin and in the shanks [1]: substantially enhanced
- color hue h*a*b* in the skin and in the shanks [1]: not significantly changed
- effectiveness in terms of concentration in the skin, and color intensity (chroma C*a*b*) in the skin and shanks [1]: significantly more effective
- Analytical Content as Equivalent of Ethyl β-apo-8′-carotenoate Fat % [2, 3]: 85%
- Analytical Content as Equivalent of Ethyl β-apo-8′-carotenoate Plasma % [2, 3]: 88%
- Analytical Content as Equivalent of Ethyl β-apo-8′-carotenoate Skin % [2, 3]: 134%
- concentrations determined as equivalents of the ethyl β-apo-8′-carotenoate, in the skin [2]: substantially higher
- Analytical Content as Equivalent of Ethyl β-apo-8′-carotenoate Fat ([2]; trial MC-24/99, 20 mg/kg feed): 2.6 mg/kg
- Analytical Content as Equivalent of Ethyl β-apo-8′-carotenoate Plasma ([2]; trial MC-24/99, 20 mg/kg feed): 9.6 mg/kg
- Analytical Content as Equivalent of Ethyl β-apo-8′-carotenoate Skin ([2]; trial MC-24/99, 20 mg/kg feed): 3.6 mg/kg
- Analytical Content as Equivalent of Ethyl β-apo-8′-carotenoate Fat % [2, 4]: 83%
- Analytical Content as Equivalent of Ethyl β-apo-8′-carotenoate Plasma % [2, 4]: 93%
- Analytical Content as Equivalent of Ethyl β-apo-8′-carotenoate Skin % [2, 4]: 128%
- Analytical Content as Equivalent of Ethyl β-apo-8′-carotenoate Fat ([2]; trial MC-24/99, 30 mg/kg feed): 3.8 mg/kg
- Analytical Content as Equivalent of Ethyl β-apo-8′-carotenoate Plasma ([2]; trial MC-24/99, 30 mg/kg feed): 13.3 mg/kg
- Analytical Content as Equivalent of Ethyl β-apo-8′-carotenoate Skin ([2]; trial MC-24/99, 30 mg/kg feed): 4.8 mg/kg
- Analytical Content as Equivalent of Ethyl β-apo-8′-carotenoate Fat % [2, 5]: 87%
- Analytical Content as Equivalent of Ethyl β-apo-8′-carotenoate Plasma % [2, 5]: 82%
- Analytical Content as Equivalent of Ethyl β-apo-8′-carotenoate Skin % [2, 5]: 139%
